Results as given in publication PMC8876135, “The Catestatin-Derived Peptides Are New Actors to Fight the Development of Oral Candidosis” (International Journal of Molecular Sciences, 2022).
Values after ≈ are worked out from the molar mass of the structure shown. Read-outs that look alike come from different tables or passages of the source. Non-standard residues stand in square brackets, D forms with d. Residues, ends and D or L forms follow the SMILES beside them.

Legend:
[1] = system: C. lusitaniae “S”; assay: Susceptibility of Candida strains to antifungal drugs; type: cell-based; parameters: key to Susceptibility category: S: susceptible standard dosing regimen; R: resistant, therapeutic failure with increased exposure; I: susceptible increased exposure; conditions: strain C. lusitaniae “S”; for Susceptibility category: EUCAST breakpoints (CLSI for Caspofungin)
[2] = system: C. glabrata “S”; assay: as above; type: cell-based; parameters: key to Susceptibility category: S: susceptible standard dosing regimen; R: resistant, therapeutic failure with increased exposure; I: susceptible increased exposure; conditions: strain C. glabrata “S”; for Susceptibility category: EUCAST breakpoints (CLSI for Caspofungin)
Description: (§1) Strains of Candida albicans, Candida tropicalis and Candida glabrata, frequently found in cases of oral candidosis, were tested for L-bCtl and D-bCtl antimicrobial activity. The sensitive strain of C. albicans (ATCC 10231^TM) was provided by ATCC (Manassas, VA, USA). The resistant strain of C. albicans, the sensitive and resistant strains of C. tropicalis as well as the sensitive and resistant strains of C. glabrata were kindly provided by Dr Valérie Letscher-Bru (Laboratory of Parasitolology and Medical Mycology, Strasbourg, France).

[3] = system: C. albicans “S”; assay: as above; type: cell-based; parameters: key to Susceptibility category: S: susceptible standard dosing regimen; R: resistant, therapeutic failure with increased exposure; I: susceptible increased exposure; conditions: strain C. albicans “S”; for Susceptibility category: EUCAST breakpoints (CLSI for Caspofungin)
Description: as §1

[4] = system: C. tropicalis “R”; assay: as above; type: cell-based; parameters: key to Susceptibility category: S: susceptible standard dosing regimen; R: resistant, therapeutic failure with increased exposure; I: susceptible increased exposure; conditions: strain C. tropicalis “R”; for Susceptibility category: EUCAST breakpoints (CLSI for Caspofungin)
Description: as §1

[5] = system: C. albicans “R”; assay: as above; type: cell-based; parameters: key to Susceptibility category: S: susceptible standard dosing regimen; R: resistant, therapeutic failure with increased exposure; I: susceptible increased exposure; conditions: strain C. albicans “R”; for Susceptibility category: EUCAST breakpoints (CLSI for Caspofungin)
Description: as §1

[6] = system: C. glabrata “R”; assay: as above; type: cell-based; parameters: key to Susceptibility category: S: susceptible standard dosing regimen; R: resistant, therapeutic failure with increased exposure; I: susceptible increased exposure; conditions: strain C. glabrata “R”; for Susceptibility category: EUCAST breakpoints (CLSI for Caspofungin)
Description: as §1

[7] = system: C. tropicalis “S”; assay: as above; type: cell-based; parameters: key to Susceptibility category: S: susceptible standard dosing regimen; R: resistant, therapeutic failure with increased exposure; I: susceptible increased exposure; conditions: strain C. tropicalis “S”; for Susceptibility category: EUCAST breakpoints (CLSI for Caspofungin)
Description: as §1

[8] = system: Candida albicans “S” (ATCC 10231); parameters: method as in Dartevelle et al. [28]; conditions: ref Dartevelle et al. [28], cited from earlier work; for MIC C. albicans “S”: values marked *, MIC = 100% growth inhibition
[9] = system: “S” C. albicans; assay: Transmission electron microscopy of treated cells; type: cell-based, Candida albicans; conditions: 1 × MIC and 10 × MIC, 1 h at 37 °C
Description: (§2) Precultures of sensitive and resistant Candida albicans strains were incubated for 2 h at 37 °C without shaking on glass bottom 24-well microplates previously treated with poly-L-lysine. The L-bCtl or D-bCtl peptides at concentrations of 1X MIC and 10X MIC were then added to the culture and incubated for 1 h at 37 °C with minimal shaking. The control samples correspond to the incubation of the different Candida albicans strains without any prior treatment. After 1 h incubation with or without each peptide of interest and a brief rinsing in 0.125 M cacodylate buffer, cells were fixed for 2 h 30 min in a 4% (v/v) glutaraldehyde buffered in 0.1 M sodium phosphate at pH 7.2. This step was followed with three 10 min washes in 0.1 M phosphate buffer at pH 7.2. Then the samples were post-fixed in a freshly prepared 2% (v/v) aqueous solution of potassium permanganate for 45 min at room temperature. The samples were washed three more times and dehydrated in graded series of ethanol of 7 min each. […]
(§3) Ultrathin sections were performed using a Reichert Jung Ultra-cut E ultra-microtome (Leica Microsystems, Nanterre, France) equipped with a diamond knife. […] Images were recorded on Kodak SO163 film (Sigma Aldrich, Saint-Quentin Fallavier, France). […]

[10] = system: “R” C. albicans; assay: Transmission electron microscopy of treated cells; type: cell-based, Candida albicans; conditions: 1 × MIC and 10 × MIC, 1 h at 37 °C
Description: as §2, §3

[11] = system: Candida albicans “R”; type: cell-based; conditions: 24 h, pH 5.6
Description: as §1
(§4) Each Candida strain was first plated on agar plates and cultured for 24 h at 37 °C. After incubation, one colony per isolate was transferred into 5 mL of Sabouraud medium pH 5.6 (Sigma-Aldrich, Le Pont-de-Claix, France) supplemented with tetracycline (10 μg/mL) and cefotaxime (10 μg/mL) and incubated aerobically under agitation at 37 °C for 24 h. The resulting cultures were resuspended at an absorbance of 0.001 (OD600nm = 0.001) in Sabouraud medium. The OD600nm was evaluated with a spectrophotometer (BIO-RAD Smatspec^TM plus, Schiltigheim, France). In preliminary experiments, we tested RPMI-1640 culture and Sabouraud media. Similar data were obtained but the experiments were more reproducible with Sabouraud than with RPMI1640. Therefore, Sabouraud medium was used in the present study.
(§5) The yeasts (OD600nm = 0.001) were then plated on 96-well microplates and treated with different concentrations of the peptides of interest. After 24 h incubation at 37 °C under agitation, yeast growth was assessed by optical density (OD600nm) using a microplate spectrophotometer (Multiscan EX, Thermo Fisher Scientific, Waltham, MA, USA). All tests were performed in triplicate. The MIC (minimal inhibitory concentration), defined as the lowest concentration of drug able to inhibit 100% of the growth of a pathogen, was determined for the different peptides against all previously described Candida strains, using a modified Gompertz model.

[12] = system: Candida tropicalis “R”; type: cell-based; conditions: 24 h, pH 5.6
Description: as §1, §4, §5

[13] = system: Candida glabrata “S”; type: cell-based; conditions: 24 h, pH 5.6
Description: as §1, §4, §5

[14] = system: Candida glabrata “R”; type: cell-based; conditions: 24 h, pH 5.6
Description: as §1, §4, §5

[15] = system: Candida tropicalis “S”; type: cell-based; conditions: 24 h, pH 5.6
Description: as §1, §4, §5

[16] = system: Candida albicans “S” (ATCC 10231); type: cell-based; conditions: ATCC 10231, 24 h, pH 5.6
Description: as §1, §4, §5

[17] = Clavispora lusitaniae, read-out: MIC
[18] = Nakaseomyces glabratus, read-out: MIC
[19] = Candida albicans, read-out: MIC
[20] = Candida tropicalis, read-out: MIC

Compound | MIC [1, 17] [µg/mL] | Susceptibility category [1] | MIC [2, 18] [µg/mL] | Susceptibility category [2] | MIC [3, 19] [µg/mL] | Susceptibility category [3] | MIC [4, 20] [µg/mL] | Susceptibility category [4] | MIC [5, 19] [µg/mL] | Susceptibility category [5] | MIC [6, 18] [µg/mL] | Susceptibility category [6] | MIC [7, 20] [µg/mL] | Susceptibility category [7] | MIC C. albicans “R” [11] [µg/mL] | MIC Candida tropicalis “R” [12] [µg/mL] | MIC Candida glabrata “S” [13] [µg/mL] | MIC Candida glabrata “R” [14] [µg/mL] | MIC Candida tropicalis “S” [15] [µg/mL] | other results
C[C@@H]1[C@H](O)[C@@H](C)/C=C/C=C/C=C/C=C/C=C/C=C/C=C/[C@H](O[C@@H]2O[C@H](C)[C@@H](O)[C@H](N)[C@@H]2O)C[C@@H]2O[C@](O)(C[C@@H](O)C[C@@H](O)[C@H](O)CC[C@@H](O)C[C@@H](O)CC(=O)O[C@H]1C)C[C@H](O)[C@H]2C(=O)O [Amphotericin B] | 0.75 (≈ 0.812 µM) | S | 0.125 (≈ 0.135 µM) | S | 0.19 (≈ 0.206 µM) | S | 0.125 (≈ 0.135 µM) | S | 0.125 (≈ 0.135 µM) | S | 0.5 (≈ 0.541 µM) | S | 0.125 (≈ 0.135 µM) | S | – | – | – | – | – | –
OC(Cn1cncn1)(Cn1cncn1)c1ccc(F)cc1F [Fluconazole] | 0.38 (≈ 1.24 µM) | S | 3 (≈ 9.8 µM) | I | 0.125 (≈ 0.408 µM) | S | 96 (≈ 313 µM) | R | > 256 | R | > 256 | R | 0.5 (≈ 1.63 µM) | S | – | – | – | – | – | –
CSCC[C@@H](NC(=O)[C@@H](CO)NC(=O)[C@H](N)CCCNC(=N)N)C(=O)N[C@H](CCCNC(=N)N)C(=O)N[C@H](CC(C)C)C(=O)N[C@H](CO)C(=O)N[C@H](Cc1ccccc1)C(=O)N[C@H](CCCNC(=N)N)C(=O)N[C@H](C)C(=O)N[C@H](CCCNC(=N)N)C(=O)NCC(=O)N[C@H](Cc1ccc(O)cc1)C(=O)NCC(=O)N[C@H](Cc1ccccc1)C(=O)N[C@H](CCCNC(=N)N)C(=O)O [Peptide P1] (H-[dR][dS][dM][dR][dL][dS][dF][dR][dA][dR]G[dY]G[dF][dR]-OH; N-terminus and C-terminus assumed) | – | – | – | – | – | – | – | – | – | – | – | – | – | – | 9.6 (≈ 5.16 µM) | 2.0 (≈ 1.08 µM) | 13.4 (≈ 7.2 µM) | 15.0 (≈ 8.06 µM) | 8.1 (≈ 4.35 µM) | MIC C. albicans “S” (as stated in discussion) ([8]; peptide alone, same figures as the * values of Tables 2 and 3): 5.5 µM (≈ 10.2 µg/mL); MIC C. albicans “S” [8]: 5.5 * µg/mL; MIC C. albicans “S” ([8]; listed as D-form of bCtl): 5.5 µg/mL (≈ 2.96 µM); TEM observation [9]: fungal membrane lysis; TEM observation [10]: fungal membrane lysis
Caspofungin | – | S | – | I | – | S | – | S | – | S | – | I | – | S | – | – | – | – | – | MIC [1]: 0.125 µg/mL; MIC [2]: 0.25 µg/mL; MIC [3]: 0.094 µg/mL; MIC [4]: 0.125 µg/mL; MIC [5]: 0.047 µg/mL; MIC [6]: 0.25 µg/mL; MIC [7]: 0.125 µg/mL
CSCC[C@H](NC(=O)[C@H](CO)NC(=O)[C@@H](N)CO)C(=O)N[C@@H](CCCCN)C(=O)N[C@@H](CC(C)C)C(=O)N[C@@H](CO)C(=O)N[C@@H](Cc1ccccc1)C(=O)N[C@@H](CCCNC(=N)N)C(=O)N[C@@H](C)C(=O)N[C@@H](CCCNC(=N)N)C(=O)N[C@@H](C)C(=O)N[C@@H](Cc1ccc(O)cc1)C(=O)NCC(=O)N[C@@H](Cc1ccccc1)C(=O)N[C@@H](CCCNC(=N)N)C(=O)NCC(=O)N1CCC[C@H]1C(=O)NCC(=O)N1CCC[C@H]1C(=O)N[C@@H](CCC(N)=O)C(=O)N[C@@H](CC(C)C)C(=O)O [hCts] (H-SSMKLSFRARAYGFRGPGPQL-OH) | – | – | – | – | – | – | – | – | – | – | – | – | – | – | >240 | >240 | >240 | >240 | >240 | MIC C. albicans “S” [16]: >240 µg/mL
C[C@@H](c1ncncc1F)[C@](O)(Cn1cncn1)c1ccc(F)cc1F [Voriconazole] | 0.012 (≈ 0.0344 µM) | S | 0.032 (≈ 0.0916 µM) | S | 0.002 (≈ 0.00573 µM) | S | 1.5 (≈ 4.29 µM) | R | > 32 | R | 8 (≈ 22.9 µM) | R | 0.047 (≈ 0.135 µM) | S | – | – | – | – | – | –
